Reference: ChEMBL document CHEMBL2311354, “C-3 halo and 3-methyl substituted 5'-nor-3-deazaaristeromycins: synthesis and antiviral properties” (Bioorg Med Chem, 2013)
Calls of active or inactive are those of the source. The calls are words filed in the database; no cut-off is given here.

How the values were obtained:
Cowpox virus = test: Antiviral activity against Cowpox virus infected in human HFF cells assessed as reduction of viral replication; type: functional, organism-based
Enterovirus = test: Antiviral activity against Rhinovirus infected in human HeLa Ohio1 cells assessed as reduction of viral replication; type: functional, organism-based
Yellow fever virus = test: Antiviral activity against Yellow fever virus infected in african green monkey Vero cells assessed as reduction of viral replication; type: functional, organism-based
West Nile virus = test: Antiviral activity against West Nile virus infected in african green monkey Vero cells assessed as reduction of viral replication; type: functional, organism-based
Dengue virus = test: Antiviral activity against Dengue virus infected in african green monkey Vero cells assessed as reduction of viral replication; type: functional, organism-based
[1] = Selectivity index, ratio of CC50 for MDCK cells to EC50 for influenza A virus H5N1; type: toxicity, cell-based; details: dog, read-out: Ratio CC50/EC50
[2] = Selectivity index, ratio of CC50 for MDCK cells to EC50 for influenza B virus; type: toxicity, cell-based; details: dog, read-out: Ratio CC50/EC50
[3] = Selectivity index, ratio of CC50 for african green monkey CV1 cells to EC50 for Measles virus; type: toxicity, cell-based, CV-1; details: read-out: Ratio CC50/EC50
[4] = Selectivity index, ratio of CC50 for human HFF cells to EC50 for Varicella-zoster virus; type: toxicity, cell-based; details: read-out: Ratio CC50/EC50
[5] = Selectivity index, ratio of CC50 for human HepG2.215 cells to EC50 for Hepatitis B virus; type: toxicity; details: read-out: Ratio CC50/EC50
[6] = Selectivity index, ratio of CC50 for human HFF cells to EC50 for human cytomegalovirus; type: toxicity, cell-based; details: read-out: Ratio CC50/EC50
Rift Valley fever virus = test: Antiviral activity against Rift Valley fever virus infected in african green monkey Vero 76 cells assessed as reduction of viral replication; type: functional, organism-based
[7] = Cytotoxicity against african green monkey Vero cells assessed as concentration required to cause microscopically alternation of cellular morphology; type: cell-based; details: chlorocebus sabaeus
[8] = Cytotoxicity against human HEL cells assessed as concentration required to cause microscopically alternation of cellular morphology; type: cell-based
[9] = Cytotoxicity against MDCK cells assessed as reduction of cell viability; type: cell-based, Canis lupus familiaris; details: dog
Tacaribe virus = test: Antiviral activity against Tacaribe virus infected in african green monkey Vero 76 cells assessed as reduction of viral replication; type: functional, organism-based; details: Mammarenavirus tacaribeense
[10] = Cytotoxicity against human HepG2.215 cells assessed as reduction of cell viability; type: cell-based, HepG2 2.2.15
[11] = Cytotoxicity against african green monkey CV1 cells assessed as reduction of cell viability; type: cell-based, CV-1; details: chlorocebus aethiops
[12] = Cytotoxicity against human HFF cells assessed as reduction of cell viability; type: cell-based
Influenza B virus = test: Antiviral activity against influenza B virus infected in MDCK cells assessed as reduction of viral replication; type: functional, organism-based
Influenza A virus [13] = test: Antiviral activity against influenza A virus H5N1 infected in MDCK cells assessed as reduction of viral replication; type: functional, organism-based
Human alphaherpesvirus 3 = test: Antiviral activity against Varicella-zoster virus infected in human HFF cells assessed as reduction of viral replication; type: functional, organism-based; details: for EC50: Human alphaherpesvirus 3, HFF
[14] = test system: Mammalian orthoreovirus 1; test: Antiviral activity against Reovirus 1 infected in african green monkey Vero cells assessed as reduction of viral replication; type: functional, organism-based; details: for EC50: Mammalian orthoreovirus 1, Vero
Measles morbillivirus = test: Antiviral activity against Measles virus infected in african green monkey CV1 cells assessed as reduction of viral replication; type: functional, organism-based; details: CV-1
Human respirovirus 3 = test: Antiviral activity against Human parainfluenzae virus 3 infected in african green monkey Vero cells assessed as reduction of viral replication; type: functional, organism-based; details: for EC50: Human respirovirus 3, Vero
Hepatitis B virus = test: Antiviral activity against Hepatitis B virus infected in human HepG 2.215 cells assessed as reduction of viral replication; type: functional, organism-based; details: for EC50: HepG2.2.15
[15] = test system: Vesicular stomatitis virus; test: Antiviral activity against Vesicular stomatitis virus infected in human HEL cells assessed as reduction of viral replication; type: functional, organism-based
Vaccinia virus = test: Antiviral activity against Vaccinia virus infected in human HEL cells assessed as reduction of viral replication; type: functional, organism-based; details: Orthopoxvirus vaccinia
Cytomegalovirus = test: Antiviral activity against human cytomegalovirus infected in human HFF cells assessed as reduction of viral replication; type: functional, organism-based; details: for EC50: Human betaherpesvirus 5, HFF
Punta Toro virus = test: Antiviral activity against Punta Toro virus infected in african green monkey Vero cells assessed as reduction of viral replication; type: functional, organism-based
[16] = test system: Human immunodeficiency virus 2; test: Antiviral activity against HIV2 infected in human CEM cells assessed as reduction of viral replication; type: functional, organism-based; details: CCRF-CEM
[17] = test system: Human immunodeficiency virus 1; test: Antiviral activity against HIV1 infected in human CEM cells assessed as reduction of viral replication; type: functional, organism-based; details: CCRF-CEM
Influenza A virus [18] = test: Antiviral activity against influenza A H3N2 infected in MDCK cells assessed as reduction of viral replication; type: functional, organism-based
Feline coronavirus = test: Antiviral activity against Feline coronavirus infected in cat CRFK cells assessed as reduction of viral replication; type: functional, organism-based
Influenza A virus [19] = test: Antiviral activity against influenza A H1N1 infected in MDCK cells assessed as reduction of viral replication; type: functional, organism-based
Human alphaherpesvirus 2 = test: Antiviral activity against HSV2 infected in human HEL cells assessed as reduction of viral replication; type: functional, organism-based
Human alphaherpesvirus 1 = test: Antiviral activity against HSV1 infected in human HEL cells assessed as reduction of viral replication; type: functional, organism-based
Sindbis virus = test: Antiviral activity against Sindbis virus infected in african green monkey Vero cells assessed as reduction of viral replication; type: functional, organism-based
Coxsackievirus B4 = test: Antiviral activity against Human coxsackievirus B4 infected in african green monkey Vero cells assessed as reduction of viral replication; type: functional, organism-based
Human gammaherpesvirus 4 = test: Antiviral activity against Epstein-Barr virus infected in human HFF cells assessed as reduction of viral replication; type: functional, organism-based
[20] = test system: Respiratory syncytial virus; test: Antiviral activity against Respiratory syncytial virus infected in monkey MA104 cells assessed as reduction of viral replication; type: functional, organism-based
unidentified adenovirus = test: Antiviral activity against Adenovirus infected in human A549 cells assessed as reduction of viral replication; type: functional, organism-based

Nc1ncc(I)c2c1ncn2[C@@H]1C[C@H](O)[C@@H](O)[C@H]1O
Activity (Cowpox virus): inactive
Activity (Enterovirus): inactive
Activity (Yellow fever virus): inactive
Activity (West Nile virus): inactive
Activity (Dengue virus): inactive
selectivity ratio [1]: > 6
selectivity ratio [2]: > 111
selectivity ratio [3]: 23
selectivity ratio [4]: < 3.4
selectivity ratio [5]: > 370
selectivity ratio [6]: 182
Activity (Rift Valley fever virus): inactive
MCC [7]: 100 µM
MCC [8]: > 100 µM
CC50 [9]: > 242 µM
Activity (Tacaribe virus): inactive
CC50 [10]: > 300 µM
CC50 [11]: 67 µM
CC50 [12]: 201 µM
EC50 (Influenza B virus): 2.2 µM
EC50 (Influenza A virus [13]): 44 µM
EC50 (Human alphaherpesvirus 3): > 60 µM
EC50 [14]: 4 µM
EC50 (Measles morbillivirus): 2.9 µM
EC50 (Human respirovirus 3): 20 µM
EC50 (Hepatitis B virus): 0.808 µM
EC50 [15]: 4 µM
EC50 (Vaccinia virus): 4 µM
EC50 (Cytomegalovirus): 1.2 µM
EC50 (Punta Toro virus): > 20 µM
Activity [16]: inactive
Activity [17]: inactive
Activity (Influenza A virus [18]): inactive
Activity (Feline coronavirus): inactive
Activity (Influenza A virus [19]): inactive
Activity (Human alphaherpesvirus 2): inactive
Activity (Human alphaherpesvirus 1): inactive
Activity (Sindbis virus): inactive
Activity (Coxsackievirus B4): inactive
Activity (Human gammaherpesvirus 4): inactive
Activity [20]: inactive
Activity (unidentified adenovirus): inactive

Nc1ncc(Br)c2c1ncn2[C@@H]1C[C@H](O)[C@@H](O)[C@H]1O
Activity (Cowpox virus): inactive
Activity (Enterovirus): inactive
Activity (Yellow fever virus): inactive
Activity (West Nile virus): inactive
Activity (Dengue virus): inactive
selectivity ratio [2]: > 100
selectivity ratio [4]: > 2630
selectivity ratio [5]: > 454
selectivity ratio [6]: > 175
Activity (Rift Valley fever virus): inactive
MCC [7]: > 8 µM
MCC [8]: > 200 µM
CC50 [9]: > 273 µM
Activity (Tacaribe virus): inactive
CC50 [10]: > 10 µM
CC50 [11]: > 273 µM
CC50 [12]: > 300 µM
EC50 (Influenza B virus): 27 µM
EC50 (Human alphaherpesvirus 3): 0.11 µM
EC50 [14]: 1.6 µM
EC50 (Measles morbillivirus): > 273 µM
EC50 (Human respirovirus 3): 8 µM
EC50 (Hepatitis B virus): 0.022 µM
EC50 [15]: > 200 µM
EC50 (Vaccinia virus): 24 µM
EC50 (Cytomegalovirus): 1.7 µM
EC50 (Punta Toro virus): > 8 µM
Activity [16]: inactive
Activity [17]: inactive
Activity (Influenza A virus [18]): inactive
Activity (Feline coronavirus): inactive
Activity (Influenza A virus [19]): inactive
Activity (Human alphaherpesvirus 2): inactive
Activity (Human alphaherpesvirus 1): inactive
Activity (Sindbis virus): inactive
Activity (Coxsackievirus B4): inactive
Activity (Human gammaherpesvirus 4): inactive
Activity [20]: inactive
Activity (unidentified adenovirus): inactive

Cc1cnc(N)c2ncn([C@@H]3C[C@H](O)[C@@H](O)[C@H]3O)c12
Activity (Cowpox virus): inactive
Activity (Enterovirus): inactive
Activity (Yellow fever virus): inactive
Activity (West Nile virus): inactive
Activity (Dengue virus): inactive
Activity (Rift Valley fever virus): inactive
Activity (Tacaribe virus): inactive
Activity (Influenza B virus): inactive
Activity (Influenza A virus [13]): inactive
Activity (Human alphaherpesvirus 3): inactive
Activity [14]: inactive
Activity (Measles morbillivirus): inactive
Activity (Human respirovirus 3): inactive
Activity (Hepatitis B virus): inactive
Activity [15]: inactive
Activity (Vaccinia virus): inactive
Activity (Cytomegalovirus): inactive
Activity (Punta Toro virus): inactive
Activity [16]: inactive
Activity [17]: inactive
Activity (Influenza A virus [18]): inactive
Activity (Feline coronavirus): inactive
Activity (Influenza A virus [19]): inactive
Activity (Human alphaherpesvirus 2): inactive
Activity (Human alphaherpesvirus 1): inactive
Activity (Sindbis virus): inactive
Activity (Coxsackievirus B4): inactive
Activity (Human gammaherpesvirus 4): inactive
Activity [20]: inactive
Activity (unidentified adenovirus): inactive

Nc1ncc(Cl)c2c1ncn2[C@@H]1C[C@H](O)[C@@H](O)[C@H]1O
Activity (Cowpox virus): inactive
Activity (Enterovirus): inactive
Activity (Yellow fever virus): inactive
Activity (West Nile virus): inactive
Activity (Dengue virus): inactive
selectivity ratio [1]: > 77
selectivity ratio [2]: > 500
selectivity ratio [3]: > 1730
Activity (Rift Valley fever virus): inactive
MCC [7]: > 200 µM
MCC [8]: > 100 µM
CC50 [9]: > 311 µM
Activity (Tacaribe virus): inactive
CC50 [10]: > 300 µM
CC50 [11]: 311 µM
CC50 [12]: > 300 µM
EC50 (Influenza B virus): 0.62 µM
EC50 (Influenza A virus [13]): 4 µM
EC50 (Human alphaherpesvirus 3): > 300 µM
EC50 [14]: 1.6 µM
EC50 (Measles morbillivirus): 0.18 µM
EC50 (Human respirovirus 3): 1.6 µM
EC50 (Hepatitis B virus): > 10 µM
EC50 [15]: 8 µM
EC50 (Vaccinia virus): 120 µM
EC50 (Punta Toro virus): 24 µM
Activity [16]: inactive
Activity [17]: inactive
Activity (Influenza A virus [18]): inactive
Activity (Feline coronavirus): inactive
Activity (Influenza A virus [19]): inactive
Activity (Human alphaherpesvirus 2): inactive
Activity (Human alphaherpesvirus 1): inactive
Activity (Sindbis virus): inactive
Activity (Coxsackievirus B4): inactive
Activity (Human gammaherpesvirus 4): inactive
Activity [20]: inactive
Activity (unidentified adenovirus): inactive
